Test results from PubChem BioAssay (NCI).
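Cultured in 96-well plates, cells were exposed to test compound for 48 hours across five concentrations. Here, GI50 denotes the concentration required for 50% inhibition of growth. TGI is the concentration that stops growth completely.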

Key:
Assay in all cases: NCI tumour cell line growth inhibition, 48 h
786-0 renal = system: 786-0 renal
ACHN renal = system: ACHN renal
CCRF-CEM leukemia = system: CCRF-CEM leukemia
EKVX NSCLC = system: EKVX NSCLC
HCT-116 colon = system: HCT-116 colon
LOX IMVI melanoma = system: LOX IMVI melanoma
MOLT-4 leukemia = system: MOLT-4 leukemia
RXF 393 renal = system: RXF 393 renal
TK-10 renal = system: TK-10 renal
CAKI-1 renal = system: CAKI-1 renal
HCT-15 colon = system: HCT-15 colon
NCI-H226 lung = system: NCI-H226 lung
OVCAR-4 ovarian = system: OVCAR-4 ovarian
SNB-19 CNS = system: SNB-19 CNS
SR leukemia = system: SR leukemia

Row | Structure (SMILES) | TGI (786-0 renal) [µM] | TGI (ACHN renal) [µM] | TGI (CCRF-CEM leukemia) [µM] | TGI (EKVX NSCLC) [µM] | TGI (HCT-116 colon) [µM] | TGI (LOX IMVI melanoma) [µM] | TGI (MOLT-4 leukemia) [µM] | TGI (RXF 393 renal) [µM] | TGI (TK-10 renal) [µM] | TGI (CAKI-1 renal) [µM] | TGI (HCT-15 colon) [µM] | TGI (NCI-H226 lung) [µM] | TGI (OVCAR-4 ovarian) [µM] | TGI (SNB-19 CNS) [µM] | TGI (SR leukemia) [µM] | GI50 (MOLT-4 leukemia) [µM] | GI50 (RXF 393 renal) [µM]
1 | CSCCC(C(=O)O)N(CC1(O)OCC(O)C(O)C1O)N=O (stereo not drawn) | > 100 | > 100 | > 100 | > 100 | > 100 | > 100 | > 100 | > 100 | > 100 |  |  |  |  |  |  |  | 
2 | O=c1c2cc(I)ccc2nc(-c2cccs2)n1/N=C/c1ccccc1 | > 100 | > 100 | > 100 | > 100 | > 100 | > 100 |  | > 100 | > 100 | > 100 | > 100 | > 100 | > 100 | > 100 | > 100 |  | 
3 | O=c1c([OH2+])c(-c2ccc(O)cc2[O-])oc2cc(O)cc([O-])c12.O=c1c([OH2+])c(-c2ccc(O)cc2[O-])oc2cc(O)cc([O-])c12.[Ti+4] | > 100 | > 100 | > 100 | > 100 | > 100 | > 100 | > 100 | > 100 | > 100 | > 100 | > 100 | > 100 | > 100 | > 100 |  | > 100 | > 100
4 | COc1ccc(-c2cc(=O)c3c(O)cc(O)cc3o2)c(OC)c1OC | > 100 |  | > 100 | > 100 |  | > 100 |  | > 100 | > 100 | > 100 |  | > 100 | > 100 | > 100 |  |  | 
5 | CC1=C2C3OC(=O)C(C)C3CCC2(C)C=CC1=Nc1ccccc1 (stereo not drawn) |  |  | > 100 | > 100 | > 100 | > 100 | > 100 | > 100 |  |  | > 100 | > 100 | > 100 | > 100 |  |  | 
6 | CN(C(=O)c1ccco1)C(=S)N1CCN(c2ccccn2)CC1 | > 100 | > 100 | > 100 |  | > 100 | > 100 | > 100 | > 100 | > 100 | > 100 | > 100 | > 100 | > 100 | > 100 |  |  | 
7 | O=P(O)(CN1CCN(CP(=O)(O)c2ccccc2)CCN(CP(=O)(O)c2ccccc2)CC1)c1ccccc1 | > 100 | > 100 | > 100 | > 100 | > 100 | > 100 | > 100 | > 100 | > 100 | > 100 |  | > 100 | > 100 | > 100 |  |  | 
8 | COc1cc(C2c3c(ccc4ccccc34)C(=O)C3CCC(=O)N32)cc(OC)c1O (stereo not drawn) | > 25 | > 25 | > 25 | > 25 | > 25 |  | > 25 | > 25 |  |  | > 25 | > 25 | > 25 | > 25 | > 25 |  | 
9 | CCCN(CCC)C1=Nc2ccccc2-n2cnnc2C1 | > 100 | > 100 | > 100 | > 100 | > 100 | > 100 | > 100 | > 100 | > 100 |  | > 100 | > 100 | > 100 | > 100 | > 100 |  | 
10 | O=c1c2c(c1=O)-c1ccccc1CN2 | > 100 | > 100 | > 100 | > 100 | > 100 | > 100 | > 100 | > 100 | > 100 | > 100 | > 100 | > 100 | > 100 | > 100 |  |  | 
11 | S=C=NC1CCC(c2cc3ccccc3s2)(N2CCCCC2)CC1 (stereo not drawn) | 3.26 | 3.34 | 2.5 | 4.69 | 3.58 | 3.03 | 1.01 | 3.16 | 3.45 | 3.45 | 3.7 |  | 3.7 | 7.79 | 2.12 |  | 
12 | O=c1ccnc2ccc3n[nH][nH]c3c12 | > 100 | > 100 | > 100 | > 100 | > 100 |  | > 100 | > 100 | > 100 | > 100 | > 100 |  | > 100 | > 100 |  |  | 
13 | CCOC(=O)C1(Br)S(=O)(=O)OCCOS1(=O)=O | > 100 | > 100 | > 100 | > 100 | > 100 | > 100 | > 100 | > 100 | > 100 |  | > 100 | > 100 | > 100 | > 100 | > 100 |  | 
14 | COC(=O)C1(C)NCCc2c1[nH]c1ccccc21 (stereo not drawn) | > 100 |  | > 100 | > 100 | > 100 |  | > 100 | > 100 | > 100 | > 100 | > 100 |  | > 100 | > 100 | > 100 |  | 
15 | CN(C(=O)c1ccc(OCCCC(=O)O)c(Cl)c1Cl)C1CCCC1 |  |  | > 100 | > 100 | > 100 | > 100 | > 100 | > 100 |  | > 100 | > 100 | > 100 | > 100 | > 100 |  |  | 
